Data from ChEMBL document CHEMBL4715697, “Synthesis and biological activity of benzamide DNA minor groove binders” (2016).

How the values were obtained:
Format in all cases: functional
OVCAR-3 [1] = test: Growth inhibition of human OVCAR-3 cells assessed as cell growth at 100 uM incubated for 48 hrs by sulforhodamine B assay relative to control; conditions: read-out: Activity
UACC-257 = test: Growth inhibition of human UACC-257 cells assessed as cell growth at 100 uM incubated for 48 hrs by sulforhodamine B assay relative to control; conditions: read-out: Activity
OVCAR-3 [2] = test: Growth inhibition of human OVCAR-3 cells assessed as cell growth at 0.1 uM incubated for 48 hrs by sulforhodamine B assay relative to control; conditions: read-out: Activity
U-251 = test: Growth inhibition of human U-251 cells assessed as cell growth at 0.1 uM incubated for 48 hrs by sulforhodamine B assay relative to control; conditions: read-out: Activity
MCF7 [3] = test: Growth inhibition of human MCF7 cells assessed as cell growth at 100 uM incubated for 48 hrs by sulforhodamine B assay relative to control; conditions: read-out: Activity
M14 = test: Growth inhibition of human M14 cells assessed as cell growth at 0.01 uM incubated for 48 hrs by sulforhodamine B assay relative to control; conditions: read-out: Activity
SK-OV-3 = test: Growth inhibition of human SK-OV-3 cells incubated for 48 hrs by sulforhodamine B assay
MCF7 [4] = test: Growth inhibition of human MCF7 cells assessed as cell growth at 0.01 uM incubated for 48 hrs by sulforhodamine B assay relative to control; conditions: read-out: Activity
DU-145 = test: Growth inhibition of human DU-145 cells assessed as cell growth at 0.1 uM incubated for 48 hrs by sulforhodamine B assay relative to control; conditions: read-out: Activity
NCI-H460 [5] = test: Growth inhibition of human NCI-H460 cells assessed as cell growth at 0.1 uM incubated for 48 hrs by sulforhodamine B assay relative to control; conditions: read-out: Activity
SNB-75 = test: Growth inhibition of human SNB-75 cells assessed as cell growth at 0.01 uM incubated for 48 hrs by sulforhodamine B assay relative to control; conditions: read-out: Activity
A549 = test: Growth inhibition of human A549/ATCC cells assessed as cell growth at 1 uM incubated for 48 hrs by sulforhodamine B assay relative to control; conditions: read-out: Activity
K562 = test: Growth inhibition of human K562 cells assessed as cell growth at 0.1 uM incubated for 48 hrs by sulforhodamine B assay relative to control; conditions: read-out: Activity
786-0 [6] = test: Growth inhibition of human 786-0 cells assessed as cell growth at 1 uM incubated for 48 hrs by sulforhodamine B assay relative to control; conditions: read-out: Activity
SF-539 = test: Growth inhibition of human SF-539 cells assessed as cell growth at 0.01 uM incubated for 48 hrs by sulforhodamine B assay relative to control; conditions: read-out: Activity
NCI-H460 [7] = test: Growth inhibition of human NCI-H460 cells assessed as cell growth at 100 uM incubated for 48 hrs by sulforhodamine B assay relative to control; conditions: read-out: Activity
PC-3 = test: Growth inhibition of human PC-3 cells assessed as cell growth at 0.1 uM incubated for 48 hrs by sulforhodamine B assay relative to control; conditions: read-out: Activity
BT-549 = test: Growth inhibition of human BT-549 cells assessed as cell growth at 100 uM incubated for 48 hrs by sulforhodamine B assay relative to control; conditions: read-out: Activity
HOP-62 = test: Growth inhibition of human HOP-62 cells assessed as cell growth at 0.01 uM incubated for 48 hrs by sulforhodamine B assay relative to control; conditions: read-out: Activity
A498 [8] = test: Growth inhibition of human A498 cells assessed as cell growth at 100 uM incubated for 48 hrs by sulforhodamine B assay relative to control; conditions: read-out: Activity
SK-MEL-5 = test: Growth inhibition of human SK-MEL-5 cells incubated for 48 hrs by sulforhodamine B assay
NCI-H460 [9] = test: Growth inhibition of human NCI-H460 cells assessed as cell growth at 0.01 uM incubated for 48 hrs by sulforhodamine B assay relative to control; conditions: read-out: Activity
KM12 = test: Growth inhibition of human KM12 cells assessed as cell growth at 100 uM incubated for 48 hrs by sulforhodamine B assay relative to control; conditions: read-out: Activity
CCRF-CEM = test: Growth inhibition of human CCRF-CEM cells assessed as cell growth at 1 uM incubated for 48 hrs by sulforhodamine B assay relative to control; conditions: read-out: Activity
MDA-MB-231 [10] = test: Growth inhibition of human MDA-MB-231 cells assessed as cell growth at 0.1 uM incubated for 48 hrs by sulforhodamine B assay relative to control; conditions: read-out: Activity
SK-MEL-28 = test: Growth inhibition of human SK-MEL-28 cells assessed as cell growth at 0.01 uM incubated for 48 hrs by sulforhodamine B assay relative to control; conditions: read-out: Activity
NCI-H522 = test: Growth inhibition of human NCI-H522 cells assessed as cell growth at 0.01 uM incubated for 48 hrs by sulforhodamine B assay relative to control; conditions: read-out: Activity
MDA-MB-231 [11] = test: Growth inhibition of human MDA-MB-231 cells assessed as cell growth at 100 uM incubated for 48 hrs by sulforhodamine B assay relative to control; conditions: read-out: Activity
HCC 2998 = test: Growth inhibition of human HCC 2998 cells assessed as cell growth at 0.1 uM incubated for 48 hrs by sulforhodamine B assay relative to control; conditions: read-out: Activity
CAKI-1 = test: Growth inhibition of human CAKI-1 cells assessed as cell growth at 0.1 uM incubated for 48 hrs by sulforhodamine B assay relative to control; conditions: read-out: Activity
NCI-H322M = test: Growth inhibition of human NCI-H322M cells assessed as cell growth at 0.01 uM incubated for 48 hrs by sulforhodamine B assay relative to control; conditions: read-out: Activity
786-0 [12] = test: Growth inhibition of human 786-0 cells assessed as cell growth at 0.01 uM incubated for 48 hrs by sulforhodamine B assay relative to control; conditions: read-out: Activity
Malme-3M [13] = test: Growth inhibition of human Malme-3M cells assessed as cell growth at 100 uM incubated for 48 hrs by sulforhodamine B assay relative to control; conditions: read-out: Activity
NCI-H460 [14] = test: Growth inhibition of human NCI-H460 cells incubated for 48 hrs by sulforhodamine B assay
Malme-3M [15] = test: Growth inhibition of human Malme-3M cells incubated for 48 hrs by sulforhodamine B assay
A498 [16] = test: Growth inhibition of human A498 cells assessed as cell growth at 1 uM incubated for 48 hrs by sulforhodamine B assay relative to control; conditions: read-out: Activity
EKVX = test: Growth inhibition of human EKVX cells assessed as cell growth at 100 uM incubated for 48 hrs by sulforhodamine B assay relative to control; conditions: read-out: Activity

CC(=O)Nc1cc(CCl)cc(NC(=O)c2ccc(C(=O)Nc3cccc(NC(=O)CCCN(C)C)c3)cc2)c1
growth at 100 µM (OVCAR-3 [1]): 105%
growth at 100 µM (UACC-257): 105%
growth at 0.1 µM (OVCAR-3 [2]): 108%
growth at 0.1 µM (U-251): 94%
growth at 100 µM (MCF7 [3]): 27%
growth at 0.01 µM (M14): 108%
GI50 (SK-OV-3; read-out: GI50): > 100 µM
LC50 (concentration killing 50% of cells) (SK-OV-3; read-out: LC50): > 100 µM
TGI (SK-OV-3; read-out: TGI): > 100 µM
GI50 (SK-OV-3; read-out: pGI50 (converted)): > 100 µM
LC50 (concentration killing 50% of cells) (SK-OV-3; read-out: pLC50 (converted)): > 100 µM
TGI (SK-OV-3; read-out: pTGI): > 100 µM
growth at 0.01 µM (MCF7 [4]): 88%
growth at 0.1 µM (DU-145): 106%
growth at 0.1 µM (NCI-H460 [5]): 106%
growth at 0.01 µM (SNB-75): 82%
growth at 1 µM (A549): 94%
growth at 0.1 µM (K562): 99%
growth at 1 µM (786-0 [6]): 105%
growth at 0.01 µM (SF-539): 98%
growth at 100 µM (NCI-H460 [7]): 99%
growth at 0.1 µM (PC-3): 103%
growth at 100 µM (BT-549): 94%
growth at 0.01 µM (HOP-62): 101%
growth at 100 µM (A498 [8]): 62%
GI50 (SK-MEL-5; read-out: GI50): > 100 µM
LC50 (SK-MEL-5; read-out: LC50): > 100 µM
TGI (SK-MEL-5; read-out: TGI): > 100 µM
GI50 (SK-MEL-5; read-out: pGI50 (converted)): > 100 µM
LC50 (SK-MEL-5; read-out: pLC50 (converted)): > 100 µM
TGI (SK-MEL-5; read-out: pTGI): > 100 µM
growth at 0.01 µM (NCI-H460 [9]): 105%
growth at 100 µM (KM12): 88%
growth at 1 µM (CCRF-CEM): 107%
growth at 0.1 µM (MDA-MB-231 [10]): 106%
growth at 0.01 µM (SK-MEL-28): 98%
growth at 0.01 µM (NCI-H522): 96%
growth at 100 µM (MDA-MB-231 [11]): 74%
growth at 0.1 µM (HCC 2998): 94%
growth at 0.1 µM (CAKI-1): 98%
growth at 0.01 µM (NCI-H322M): 106%
growth at 0.01 µM (786-0 [12]): 106%
growth at 100 µM (Malme-3M [13]): 80%
GI50 (NCI-H460 [14]; read-out: GI50): > 100 µM
CC50 (NCI-H460 [14]; read-out: LC50 (the source's name)): > 100 µM
TGI (NCI-H460 [14]; read-out: TGI): > 100 µM
GI50 (NCI-H460 [14]; read-out: pGI50 (converted)): > 100 µM
CC50 (NCI-H460 [14]; read-out: pLC50 (the source's name) (converted)): > 100 µM
TGI (NCI-H460 [14]; read-out: pTGI): > 100 µM
GI50 (Malme-3M [15]; read-out: GI50): > 100 µM
LC50 (concentration killing 50% of cells) (Malme-3M [15]; read-out: LC50): > 100 µM
TGI (Malme-3M [15]; read-out: TGI): > 100 µM
GI50 (Malme-3M [15]; read-out: pGI50 (converted)): > 100 µM
LC50 (concentration killing 50% of cells) (Malme-3M [15]; read-out: pLC50 (converted)): > 100 µM
TGI (Malme-3M [15]; read-out: pTGI): > 100 µM
growth at 1 µM (A498 [16]): 73%
growth at 100 µM (EKVX): 84%
